# Data published in patent publication US6977254B2, “Hydroxy cyclohexenyl phenyl carboxamides tocolytic oxytocin receptor antagonists” (Wyeth, priority 2001, dated 2005).
# Target: T1, human vasopressin V1a receptor subtype (Homo sapiens, UniProt P37288)
# T1 construct: host or cells: CHO cells, stably transfected (pZeoSV vector for the Thibonnier line); membranes
# Assay: Vasopressin binding in CHO cell membranes expressing human vasopressin V1a subtype receptors ([3H]Manning ligand)
# Settings: 100 nM, value without parentheses
# Excerpt: Vasopressin Binding in Chinese Hamster Ovary Cell Membranes Expressing Human Vasopressin V1a Subtype Receptors
# Chinese hamster ovary cells (CHO cells) stably transfected with the human vasopressin V1a subtype receptors were either obtained from Biosignal Inc., 1744 rue Williams, Montreal, Quebec, Canada or obtained from M. Thibonnier, Case Western Reserve University School of Medicine, Cleveland, Ohio.
# A. Passaging and Amplification of Cells:
# CHO cells transfected with the human vasopressin V1a subtype receptors obtained from M. Thibonnier (pZeoSV vector) are allowed to grow to confluency (approx. >90%) in T-150 flasks under sterile conditions, in a cell culture medium of F-12 Nutrient Mixture (HAM) with L-glutamine (Gibco Cat. #11765-054) containing 15 mM HEPES (Gibco Cat. #15630-080), 1% antibiotic/antimycotic (add 5 mL 100×, Gibco Cat. #15240-062 per 500 mL F-12), 250 μg/mL Zeocin (add 1.25 mL of 100 mg/mL Invitrogen R-250-01 per 500 mL F-12) and 10% Fetal Bovine Serum (Qualified, heat inactivated, Gibco Cat. #16140-063). The medium is removed by aspiration and the cells are washed with 10 mL of Hank's Balanced Salt solution (Gibco Cat. #14175-095). The salt solution is removed by aspiration and the cells are trypsinized with 5 mL of trypsin-EDTA (0.05% trypsin, 0.53 mM EDTA-4Na, Gibco Cat. #25300-070) for 1 min. The trypsin is removed by aspiration and the cells dislodged by tapping. Cell Culture medium (eg, 30 mL for 1:30 split) is immediately added and mixed well to inactivate trypsin. 1 mL of detached cells is added to new culture flasks containing fresh cell culture medium (eg, into 25 mL per T-150 flask), and mixed gently. The cells are incubated at 37° C. in 5% CO2. The medium is changed at 3 to 4 days interval (or as appropriate). The cells grow to confluency (approx. >75%-95%) within 7-8 days. All steps are done under sterile conditions.
# The cells are washed twice gently with Hank's Balanced Salt solution (e.g,. use 10 mL per T-150 flask). The excess is removed and the cells are bathed for 15-30 min. in an enzyme-free Cell Dissociation Buffer (e.g. use 8 mL Hank's Based, Gibco Cat. #13150-016 per T-150 flask) until the cells are loosened. The contents are transferred to centrifuge tubes (50 mL size) kept in ice bath. All subsequent steps are done at 4° C. The tubes are centrifuged at 300×g for 15 min (1380 rpm on SORVAL, Model RT6000D, using rotor for 50 mL tubes). The supernatant is discarded and the cells suspended in homogeneizing buffer(10 mM Tris-HCl containing 0.25 M sucrose and 1 mM EDTA, pH 7.4) ensuring that the volume of the buffer is about ten times the volume of the cell pellet. The cells are pooled into a centrifuge tube (50 mL) and homogenized with Polytron at setting 6 for 10 sec. The homogenate is transferred into a Potter-Elvjehm homogenizer and homogenized with 3 strokes. The homogenate is centrifuged at 1500×g for 10 min at 4° C. (3100 rpm using SORVAL, model RT6000D, using rotor for 50 mL tubes). The pellet is discarded. The supernatant is centrifuged at 100,000×g for 60 min. at 4° C. (Beckman L8-80M ultracentrifuge; spin at 37,500 rpm with rotor type 70 Ti for 50 mL tubes; 38,000 rpm with type 80Ti for 15 mL tubes; or 35,800 rpm with rotor type 45Ti). The supemantant is discarded and the pellet suspended in 3 to 4 mL of Tris buffer (50 mM TRIS-HCl, pH 7.4). The protein content is estimated by the Bradford or Lowry method. The volume of the membrane suspension is adjusted with the membrane buffer (50 mM Tris-HCl containing 0.1% BSA and 0.1 mM PMSF) to give 3.0 mg/mL (or as appropriate) of protein. The membranes are aliquoted and stored at −70° C.
# C. Radioligand Binding Assay: […]
# T1 sequence (P37288 whole entry): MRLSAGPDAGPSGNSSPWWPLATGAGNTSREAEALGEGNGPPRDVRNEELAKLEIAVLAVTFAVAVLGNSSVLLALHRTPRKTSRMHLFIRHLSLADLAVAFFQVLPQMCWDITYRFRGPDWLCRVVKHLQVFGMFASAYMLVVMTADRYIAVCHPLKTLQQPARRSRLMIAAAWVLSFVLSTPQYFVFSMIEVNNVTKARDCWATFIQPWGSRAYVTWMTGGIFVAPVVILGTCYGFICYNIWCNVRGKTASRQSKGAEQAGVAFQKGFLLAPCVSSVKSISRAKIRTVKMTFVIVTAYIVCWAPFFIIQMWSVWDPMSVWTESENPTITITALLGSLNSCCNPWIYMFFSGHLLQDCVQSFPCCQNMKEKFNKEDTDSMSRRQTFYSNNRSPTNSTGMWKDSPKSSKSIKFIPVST
inhibition at 0.1 µM,V1a % inhibition @ 100 nM,Compound
8%,–,"Cc1cc(C(=O)N2Cc3ccc(C(=O)O)n3Cc3ccccc32)ccc1C1=CCCCC1 [Example 5E, 10-(4-Cyclohex-1-en-1-yl-3-methyl-benzoyl)-10,11-dihydro-5H-pyrrolo[2,1-c][1,4]benzodiazepine-3-carboxylic acid]"
0%,–,"COc1cc(C2=CCCCC2)c(Cl)cc1C(=O)N1Cc2ccc(C(=O)O)n2Cc2ccccc21 [Example 1G, 10-(5-Chloro-4-cyclohex-1-en-1-yl-2-methoxybenzoyl)-10,11-dihydro-5H-pyrrolo[2,1-c][1,4]benzodiazepine-3-carboxylic acid]"
–,6%,"Cc1cc(C(=O)N2Cc3ccc(C(=O)N(CCO)CCO)n3Cc3ccccc32)ccc1C1=CCCc2ccccc21 [Example 16, {10-[4-(3,4-Dihydro-naphthalen-1-yl)-3-methyl-benzoyl]-10,11-dihydro-5H-pyrrolo[2,1-c][1,4]benzodiazepin-3-yl}-3-carboxylic acid bis-(2-hydroxy-ethyl)-amide]"
6%,–,"COC(=O)[C@H](CO)NC(=O)c1ccc2n1Cc1ccccc1N(C(=O)c1ccc(C3=CCCCC3)c(C)c1)C2 [Example 11, (2S)-2-{[10-(4-Cyclohex-1-en-1-yl-3-methyl-benzoyl)-10,11-dihydro-5H-pyrrolo[2,1-c][1,4]benzodiazepine-3-carbonyl]-amino}-3-hydroxy-propionic acid methyl ester]"
6%,–,"CCOC(=O)[C@H](Cc1ccc(O)cc1)NC(=O)c1ccc2n1Cc1ccccc1N(C(=O)c1ccc(C3=CCCCC3)c(C)c1)C2 [Example 9, (2S)-2-{[10-(4-Cyclohex-1-en-1-yl-3-methyl-benzoyl)-10,11-dihydro-5H-pyrrolo[2,1-c][1,4]benzodiazepine-3-carbonyl]-amino}-3-(4-hydroxy-phenyl)-propionic acid ethyl ester]"
16%,–,"COC(=O)[C@@H](CO)NC(=O)c1ccc2n1Cc1ccccc1N(C(=O)c1ccc(C3=CCCCC3)c(C)c1)C2 [Example 12, (2R)-2-{[10-(4-Cyclohex-1-en-1-yl-3-methyl-benzoyl)-10,11-dihydro-5H-pyrrolo[2,1-c][1,4]benzodiazepine-3-carbonyl]-amino}-3-hydroxy-propionic acid methyl ester]"
62%,–,"Cc1cc(C(=O)N2Cc3ccc(C(=O)N(C)C[C@@H]4OC(=O)O[C@H]4[C@H](O)[C@H]4COC(=O)O4)n3Cc3ccccc32)ccc1C1=CCCCC1 [Example 7, 10-(4-Cyclohex-1-en-1-yl-3-methylbenzoyl)-N-[((4S,5S)-5-{(R)-hydroxy[(4R)-2-oxo-1,3-dioxolan-4-yl]methyl}-2-oxo-1,3-dioxolan-4-yl)methyl]-N-methyl-10,11-dihydro-5H-pyrrolo[2,1-c][1,4]benzodiazepine-3-carboxamide]"
-2%,–,"Cc1cc(C(=O)N2Cc3ccc(C(=O)O)n3Cc3ccccc32)ccc1C1=CCCc2ccccc21 [Example 15B, 10-[4-(3,4-Dihydro-naphthalen-1-yl)-3-methyl-benzoyl]-10,11-dihydro-5H-pyrrolo[2,1-c][1,4]benzodiazepine-3-carboxylic acid]"
–,14%,Cc1cc(C(=O)N2Cc3ccc(C(=O)N[C@@H](Cc4ccc(O)cc4)C(=O)O)n3Cc3ccccc32)ccc1C1=CCCCC1 [Example 10]
–,0%,"Cc1cc(C(=O)N2Cc3ccc(C(=O)C(Cl)(Cl)Cl)n3Cc3ccccc32)ccc1C1=CCCCC1 [Example 5D, 2,2,2-Trichloro-1-[10-(4-cyclohex-1-en-1-yl-3-methyl-benzoyl)-10,11-dihydro-5H-pyrrolo[2,1-c][1,4]benzodiazepin-3-yl]-methanone]"
5%,–,"Cc1cc(C(=O)N2Cc3ccc(C(=O)N[C@@H](CO)C(=O)O)n3Cc3ccccc32)ccc1C1=CCCCC1 [Example 13, (2S)-2-{[10-(4-Cyclohex-1-en-1-yl-3-methyl-benzoyl)-10,11-dihydro-5H-pyrrolo[2,1-c][1,4]benzodiazepine-3-carbonyl]-amino}-3-hydroxy-propionic acid]"
–,31%,"Cc1cc(C(=O)N2Cc3ccc(C(=O)N4CCN(CCO)CC4)n3Cc3ccccc32)ccc1C1=CCCCC1 [Example 17, {10-[4-(1-Cyclohex-1-en-1-yl)-3-methylbenzoyl]-10,11-dihydro-5H-pyrrolo[2,1-c][1,4]benzodiazepin-3-yl}[4-(2-hydroxyethyl)-1-piperazinyl]methanone]"
6%,–,"Cc1cc(C(=O)N2Cc3ccc(C(=O)N[C@H](CO)C(=O)O)n3Cc3ccccc32)ccc1C1=CCCCC1 [Example 14, (2R)-2-{[10-(4-Cyclohex-1-en-1-yl-3-methyl-benzoyl)-10,11-dihydro-5H-pyrrolo[2,1-c][1,4]benzodiazepine-3-carbonyl]-amino}-3-hydroxy-propionic acid]"

# Same assay, conditions: value in parentheses
row,IC50,Compound
1,879 nM,"COc1cc(C2=CCCCC2)c(Cl)cc1C(=O)N1Cc2ccc(C(=O)N(C)C[C@H](O)[C@@H](O)[C@H](O)[C@H](O)CO)n2Cc2ccccc21 [Example 1, 1-[[[10-[5-Chloro-4-(1-cyclohex-1-en-1-yl)-2-methoxybenzoyl]-10,11-dihydro-5H-pyrrolo[2,1-c][1,4]benzodiazepin-3-yl]carbonyl]methylamino]-1-deoxy-D-glucitol]"
2,62.4 nM,"Cc1cc(C(=O)N2Cc3ccc(C(=O)N(C)C[C@H](O)[C@H]4OC(=O)O[C@@H]4[C@H](O)CO)n3Cc3ccccc32)ccc1C1=CCCCC1 [Example 6, 10-(4-Cyclohex-1-en-1-yl-3-methylbenzoyl)-N-((2S)-2-{(4R,5R)-5-[(1R)-1,2-dihydroxyethyl]-2-oxo-1,3-dioxolan-4-yl}-2-hydroxyethyl)-N-methyl-10,11-dihydro-5H-pyrrolo[2,1-c][1,4]benzodiazepine-3-carboxamide]"
3,315 nM,"COC[C@@H](OC)[C@@H](OC)[C@H](OC)[C@H](CN(C)C(=O)c1ccc2n1Cc1ccccc1N(C(=O)c1ccc(C3=CCCCC3)c(C)c1)C2)OC [Example 8, 10-(4-Cyclohex-1-en-1-yl-3-methylbenzoyl)-N-methyl-N-[(2S,3R,4R,5R)-2,3,4,5,6-pentamethoxyhexyl]-10,11-dihydro-5H-pyrrolo[2,1-c][1,4]benzodiazepine-3-carboxamide]"
4,1460 nM,"COc1cc(C2=CCCCC2)c(Cl)cc1C(=O)N1Cc2ccc(C(=O)N(C)C[C@@H]3OC(=O)O[C@H]3[C@H](O)[C@H]3COC(=O)O3)n2Cc2ccccc21 [Example 3, 10-(5-Chloro-4-cyclohex-1-en-1-yl-2-methoxybenzoyl)-N-[((4S,5S)-5-{(R)-hydroxy[(4R)-2-oxo-1,3-dioxolan-4-yl]methyl}-2-oxo-1,3-dioxolan-4-yl)methyl]-N-methyl-10,11-dihydro-5H-pyrrolo[2,1-c][1,4]benzodiazepine-3-carboxamide]"
5,613 nM,"COc1cc(C2=CCCCC2)c(Cl)cc1C(=O)N1Cc2ccc(C(=O)N(C)CC(O)CO)n2Cc2ccccc21 (centres unmarked) [Example 4, 10-(5-Chloro-4-cyclohex-1-en-1-yl-2-methoxybenzoyl)-N-(2,3-dihydroxypropyl)-N-methyl-10,11-dihydro-5H-pyrrolo[2,1-c][1,4]benzodiazepine-3-carboxamide]"
6,646 nM,Cc1cc(C(=O)N2Cc3ccc(C(=O)N(C)C[C@H](O)[C@@H](O)[C@H](O)[C@H](O)CO)n3Cc3ccccc32)ccc1C1=CCCc2ccccc21 [Example 15]
7,182 nM,Cc1cc(C(=O)N2Cc3ccc(C(=O)N(C)C[C@H](O)[C@@H](O)[C@H](O)[C@H](O)CO)n3Cc3ccccc32)ccc1C1=CCCCC1 [Example 5]
